Laboratory results taken from patent US12226501B2, “Composition with stabilized taste and odor” (Symrise AG, priority 2015, dated 2025).

Experiments:
[1] = Stabilization of avocado oil, absorbance at 232 nm (conjugated dienes); type: physicochemical; conditions: compared to avocado oil without additive or to alpha-tocopherol 0.5%
Method: To evaluate the odor protecting effect of [6]-paradol on oils, oil samples comprising avocado oil without (A) and with different additives (B to D) were prepared as given in Table 5.
(§1) The oil samples were divided respectively into 3 portions, wherein one part was exposed to artificial UV light in a suntest device (Original Hanau-Xenon lamp) for 8 hours 550-600 W/m^2 (300 to 800 nm). The other two portions were stored for 1 month either at room temperature exposed to normal daylight (RTL) or at 50° C. in a heating cabinet (50° C.), respectively. After the treatments, the absorbance at 232 nm was determined as this positive correlates with the state of oxidation by detecting conjugated dienes as specific oxidized compounds.

[2] = Stabilization of argan oil, absorbance at 232 nm (conjugated dienes); type: physicochemical; conditions: compared to argan oil without additive or to alpha-tocopherol 0.5%
Method: To evaluate the protecting effect of oils from oxidation, oil samples comprising argan oil without (A) and with different additives (B to D) were prepared as given in Table 8.
as §1, with “oils” for “oil samples”, “divided” for “divided respectively”, “portions each. One portion” for “portions, wherein one part”, “this” for “this positive”

[3] = ABTS-assay, anti-oxidative capacity (inhibition of radical formation); type: biochemical; conditions: for IC50: ABTS radical cation, absorption at 734 nm, mean value from at least 2 independent tests
Method: 6-Paradol is a known antioxidant. With the help of the ABTS-assay the anti-oxidative capacity of [6]-paradol and alpha-tocopherol was compared.
2,2′-azino bis-(3-ethylbenzothiazoline 6-sulfonic acid) (ABTS) was transformed by potassium persulfate into the blue-green radical cation ABTS•^+. Through the addition of [6]-paradol and alpha-tocopherol the radical cations were reduced and discoloration was observed, which was determined photometrically by Absorption at 734 nm. The inhibition of the radical formation of the test substance is calculated by the following formula:
[formula] Wherein the abbreviations have the following meanings: • Atest substance: Absorption of the wells with test substance including [6]-paradol and alpha-tocopherol • Acontrol: Absorption of the wells without test substance
From the inhibition of the radical formation [%] in a series of dilutions of tested samples the IC50 was calculated. This is the concentration at which the radical formation is inhibited by 50%.

oxidized DNA bases = conditions: in vitro; cited from earlier work
DMBA-treated hamsters = conditions: oral 30 mg/kg b.w. on alternate days for 14 weeks; cited from earlier work
[4] = Color measurement (CIELAB L*a*b*, ΔE) of anti-aging cream containing a retinoid after suntest; type: physicochemical
Method: Retinoids such as e.g. retinol are potent anti-aging cosmetic agents known to be unstable and prone to discoloration upon light exposure and longer storage at higher temperatures (e.g. >30° C.).
The phase A was heated to 80° C. For phase B, Carbopol Ultrez 21 was sprinkled at the surface of the water for swelling. Afterwards, glycerin was added and phase B was heated up to 80°. Then phase B was added to phase A under strong agitation with an Ultra Turrax. The formula was cooled down and phase C was added at around 40° C. Afterwards, the formula was neutralized with sodium hydroxide to get pH 5-5.5. When the formula was at room temperature, phase E was added under agitation. Final pH was checked to be 5-5.5.
The cream samples were exposed to artificial UV light in a suntest device (Original Hanau-Xenon lamp) for 8 hours 550-600 W/m^2 (300 to 800 nm). Afterwards, they were evaluated for discoloration by measurement of L*a*b* values and calculation of the color difference ΔE as described in example 8.

Compound | protective effect on avocado oil (in words) [1] | protective effect on argan oil (in words) [2] | IC50 [3] | radical scavenging activity better than alpha-tocopherol ([3]; comparison of IC50 values) | H2O2- and UV-induced formation of oxidized DNA bases (oxidized DNA bases) | status of antioxidants (DMBA-treated hamsters) | color protection of retinol (in words) [4]
CCCCCCCC(=O)CCc1ccc(O)c(OC)c1 [[6]-paradol, 1-(4-hydroxy-3-methoxyphenyl)-decan-3-one] | lower increase of absorbance at 232 nm | lower increase of absorbance at 232 nm | 17.4 µM | 1.5 fold | attenuated | significantly improved the status of antioxidants | –
Cc1c(C)c2c(c(C)c1O)CC[C@@](C)(CCC[C@H](C)CCC[C@H](C)CCCC(C)C)O2 [alpha-tocopherol, reference compound] | – | – | 26.8 µM | – | – | – | unsuitable for protecting retinol from discoloration
